These results are taken from PubChem BioAssay (NCI).

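Five compound concentrations were applied to cells in 96-well plates for 48 hours; endpoints were derived by simple linear interpolation of the resulting dose-response curve. The concentration for 50% growth inhibition is given as GI50. The concentration for full growth arrest is given as TGI.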

Among the test systems are K-562 leukemia; SF-539 CNS; SR leukemia; SK-MEL-2 melanoma; IGROV1 ovarian; MCF7 breast; NCI-H460 lung; EKVX NSCLC; CCRF-CEM leukemia; CAKI-1 renal.
Holding throughout (experiment): NCI tumour cell line growth inhibition, 48 h

Take `Cc1ccccc1-n1c(/C=C\c2ccccn2)nc2ccccc2c1=O`: the GI50 in the assay with K-562 leukemia is 4.42 µM; in the assay with SF-539 CNS, 18.6 µM; with SR leukemia, 3.05 µM; in the assay on SK-MEL-2 melanoma, 14.4 µM; in the assay with IGROV1 ovarian it was 13.2 µM; with MCF7 breast it was 10.1 µM. Besides, the GI50 in the assay with NCI-H460 lung was 9.29 µM; in the assay with EKVX NSCLC, 23.7 µM; with CCRF-CEM leukemia, 4.24 µM; in the assay on CAKI-1 renal, 3.32 µM. Further, the TGI in the assay on K-562 leukemia was 90.2 µM; with SF-539 CNS it was 55 µM; in the assay on SR leukemia, 20.4 µM; in the assay with SK-MEL-2 melanoma, 38.5 µM; in the assay with IGROV1 ovarian, 63.9 µM; in the assay with MCF7 breast, 58.7 µM. Moreover, the TGI in the assay with NCI-H460 lung was 42.1 µM; with EKVX NSCLC it was over 100 µM; in the assay with CCRF-CEM leukemia, 30.1 µM; in the assay with CAKI-1 renal it was 16.9 µM.

On to `O=C(O)c1ccc(S(=O)(=O)N=Nc2c(O)[nH]c3ccccc23)cc1`, for which the TGI in the assay on K-562 leukemia, in the assay on SF-539 CNS, with SR leukemia, in the assay on SK-MEL-2 melanoma, in the assay with IGROV1 ovarian and in the assay on MCF7 breast was over 100 µM in each case. The TGI in the assay with NCI-H460 lung, in the assay on EKVX NSCLC, with CCRF-CEM leukemia and in the assay with CAKI-1 renal was over 100 µM throughout.

`O=C(Nc1cccc2cccnc12)c1ccc(N2C(=O)[C@@H]3[C@H](C2=O)[C@@H]2C=C[C@H]3C2)cc1`: the GI50 with K-562 leukemia was 24.5 µM; in the assay with SF-539 CNS, 77.8 µM; with SR leukemia, 30 µM; in the assay with SK-MEL-2 melanoma, 27 µM; with IGROV1 ovarian, 32.7 µM; in the assay with MCF7 breast, 25.1 µM. Besides, the GI50 in the assay with NCI-H460 lung was 34.6 µM; in the assay with EKVX NSCLC, 32.2 µM; with CCRF-CEM leukemia, 30.1 µM; in the assay on CAKI-1 renal it was 21 µM. The TGI with K-562 leukemia is over 100 µM; in the assay with SF-539 CNS it was over 100 µM; with SR leukemia it was over 100 µM; in the assay on SK-MEL-2 melanoma, 80.1 µM; in the assay with IGROV1 ovarian it was over 100 µM; in the assay on MCF7 breast, over 100 µM. For the same compound, the TGI in the assay with NCI-H460 lung, with EKVX NSCLC, in the assay on CCRF-CEM leukemia and in the assay with CAKI-1 renal was over 100 µM each time.

For `CCn1c(-c2nonc2N)nc2c(C#CC(C)(C)O)nc(O[C@@H](CN)c3ccccc3)cc21`, the GI50 with K-562 leukemia is 0.122 µM; in the assay on SF-539 CNS, 0.116 µM; in the assay on SR leukemia it was 0.099 µM; with SK-MEL-2 melanoma, 0.188 µM; in the assay with IGROV1 ovarian it was 0.0163 µM; in the assay with MCF7 breast it was 0.055 µM. The GI50 was 0.0621 µM with NCI-H460 lung, 0.982 µM with EKVX NSCLC, 0.0554 µM in the assay on CCRF-CEM leukemia and 3.7 µM in the assay on CAKI-1 renal. Moreover, the TGI in the assay with K-562 leukemia is 4.26 µM; with SF-539 CNS it was 0.874 µM; in the assay with SR leukemia, 3.59 µM; in the assay with SK-MEL-2 melanoma, 0.737 µM; in the assay with IGROV1 ovarian, 2.86 µM; with MCF7 breast, 2.58 µM. The TGI stood at 1.06 µM in the assay on NCI-H460 lung, 9.38 µM with EKVX NSCLC, 5.16 µM in the assay with CCRF-CEM leukemia and 12.3 µM with CAKI-1 renal.

Regarding `COc1ccc(NC(=O)c2sc3nc(C)c(C(O)c4ccc(OC)cc4)cc3c2N)cc1` (stereo not drawn), the GI50 was 0.509 µM with K-562 leukemia; 1.02 µM in the assay on SF-539 CNS; 0.256 µM with SR leukemia; 1.74 µM with SK-MEL-2 melanoma; 1.85 µM in the assay with IGROV1 ovarian; 0.196 µM in the assay with MCF7 breast. For the same compound, the GI50 in the assay on NCI-H460 lung was 0.17 µM; in the assay on EKVX NSCLC, 3.13 µM; in the assay on CCRF-CEM leukemia it was 1.44 µM; with CAKI-1 renal, 0.803 µM. Moreover, the TGI is over 50 µM with K-562 leukemia; 4.44 µM in the assay on SF-539 CNS; over 50 µM with SR leukemia; over 50 µM in the assay on SK-MEL-2 melanoma; over 50 µM in the assay with IGROV1 ovarian; over 50 µM in the assay with MCF7 breast. In addition, the TGI in the assay with NCI-H460 lung is 9.97 µM; in the assay with EKVX NSCLC, over 50 µM; in the assay with CCRF-CEM leukemia, over 50 µM; in the assay on CAKI-1 renal it was over 50 µM.

With `BrC(Br)(Br)c1cnc2ccccc2n1`, the GI50 with K-562 leukemia is 1.12 µM; in the assay on SF-539 CNS it was 2.21 µM; with SR leukemia, 1.79 µM; in the assay with SK-MEL-2 melanoma it was 2.72 µM; with IGROV1 ovarian, 2.2 µM; with MCF7 breast, 1.53 µM. Further, the GI50 in the assay on NCI-H460 lung is 1.36 µM; in the assay on EKVX NSCLC it was 2.99 µM; in the assay with CCRF-CEM leukemia, 0.49 µM; in the assay on CAKI-1 renal, 1.52 µM. In addition, the TGI came out at 3.55 µM in the assay on K-562 leukemia; 4.86 µM in the assay with SF-539 CNS; 5.81 µM in the assay with SR leukemia; 7.4 µM with SK-MEL-2 melanoma; 6.8 µM in the assay with IGROV1 ovarian; 5.42 µM in the assay on MCF7 breast. Besides, the TGI with NCI-H460 lung turned out to be 4.21 µM; with EKVX NSCLC, 13.2 µM; in the assay with CCRF-CEM leukemia, 2.42 µM; with CAKI-1 renal, 4.41 µM.

On to `CCCCN(CCCC)CC(C)(C)C(O)c1ccc(OC)c2ccccc12` (stereo not drawn), for which the GI50 in the assay on K-562 leukemia is 2.51 µM; in the assay with SR leukemia, 2.89 µM; in the assay on SK-MEL-2 melanoma, 5.11 µM; in the assay with IGROV1 ovarian, 1.69 µM; in the assay with MCF7 breast, 3.55 µM; in the assay with NCI-H460 lung, 3.52 µM. In addition, the values for the GI50 with EKVX NSCLC, with CCRF-CEM leukemia and with CAKI-1 renal were 4.24 µM, 5.13 µM and 3.06 µM, respectively. Besides, the TGI with K-562 leukemia came out at 13.6 µM; in the assay with SR leukemia, 8.34 µM; with SK-MEL-2 melanoma, 17.7 µM; in the assay with IGROV1 ovarian it was 14.1 µM; in the assay on MCF7 breast, 15.4 µM; with NCI-H460 lung, 16.5 µM. For the same compound, the TGI was determined as 22.9 µM in the assay on EKVX NSCLC, 26.7 µM with CCRF-CEM leukemia and 16 µM in the assay with CAKI-1 renal.

In the case of `C=C1C(=O)O[C@H]2[C@H]1[C@H](OC(=O)/C(C)=C\C)C[C@]1(CO1)[C@@H]1[C@H](OC(C)=O)C=C(C)[C@]21O`, the TGI in the assay with K-562 leukemia was 11.8 µM; in the assay on SF-539 CNS, over 93.9 µM; with SR leukemia, 28.5 µM; with SK-MEL-2 melanoma it was over 58.3 µM; in the assay on IGROV1 ovarian, 38.8 µM; with MCF7 breast, 29.1 µM. Moreover, the TGI was over 89.8 µM in the assay with NCI-H460 lung, 33.8 µM in the assay on EKVX NSCLC, 15.6 µM in the assay with CCRF-CEM leukemia and 36.8 µM in the assay with CAKI-1 renal.
